Like-named read-outs stand apart in the source and are kept apart here.
Tests used:
[1] = test system: wild oat (Avena fatua) (AVEFA); experiment: post-emergent herbicidal test, wild oat; type: in vivo; details: Avena fatua, post-emergence, read-out: AVEFA percent control; for pest or weed control at 4000 g/ha: 4.0 kg/ha
Outline: (§1)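 Percent injury (0 = no effect, 100 = complete kill) scored 17–21 days post-treatment against untreated flats. Foliar spray at 1 or 4 kg/ha in deionized water plus 0.5% v/v Tween 20, onto greenhouse plants (29/21 °C, 14 h light) at 3–4 leaf (grasses) or 1–2 leaf (broadleaves) stage.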

[2] = test system: velvetleaf (Abutilon theophrasti) (ABUTH); experiment: post-emergent herbicidal test, velvetleaf; type: in vivo; details: Abutilon theophrasti, post-emergence, read-out: ABUTH percent control; for pest or weed control at 4000 g/ha: 4.0 kg/ha
Outline: as §1

[3] = test system: green foxtail (Setaria viridis) (SETVI); experiment: post-emergent herbicidal test, green foxtail; type: in vivo; details: Setaria viridis, post-emergence, read-out: SETVI percent control; for pest or weed control at 4000 g/ha: 4.0 kg/ha
Outline: as §1

[4] = test system: farnesyl pyrophosphate synthase in daffodil chromoplasts; experiment: inhibition of farnesyl pyrophosphate synthase in daffodil chromoplasts (14C-isopentenyl pyrophosphate incorporation); type: biochemical, Narcissus pseudonarcissus; details: unit inferred, IC50 values in nM, read-out: IC50
Outline: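 Daffodil chromoplasts in pH 7.7 sucrose/MgCl2/HEPES buffer with cysteine, NaF and BSA, started with ~3 micromolar 14C-isopentenyl pyrophosphate, 30 min at 30° C. Butanol-extractable radioactivity counted by scintillation; % residual activity calculated against zero-time and end-point no-inhibitor controls.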

[5] = test system: wild mustard (Brassica kaber), also known as Sinapis arvensis (SINAR); experiment: post-emergent herbicidal test, wild mustard; type: in vivo; details: Brassica, post-emergence, read-out: SINAR percent control; for pest or weed control at 4000 g/ha: 4.0 kg/ha
Outline: as §1

[6] = test system: morningglory (Ipomoea spp.) (IPOSS); experiment: post-emergent herbicidal test, morningglory; type: in vivo; details: Ipomoea, post-emergence, read-out: IPOSS percent control; for pest or weed control at 4000 g/ha: 4.0 kg/ha
Outline: as §1

[7] = test system: yellow nutsedge (Cyperus esculentus) (CYPES); experiment: post-emergent herbicidal test, yellow nutsedge; type: in vivo; details: Cyperus, post-emergence, read-out: CYPES percent control; for pest or weed control at 4000 g/ha: 4.0 kg/ha
Outline: as §1

[8] = test system: barnyard grass (Enchinochloa crusgalli) (ECHCG); experiment: post-emergent herbicidal test, barnyard grass; type: in vivo; details: Echinochloa crus-galli, post-emergence, read-out: ECHCG percent control; for pest or weed control at 4000 g/ha: 4.0 kg/ha
Outline: as §1

[9] = post-emergent, 1.0 kg/ha (*), 17-21 days after application
[10] = post-emergent, 17-21 days after application

Structure (SMILES)	pest or weed control at 1000 g/ha [1, 9] [%]	pest or weed control at 1000 g/ha [2, 9] [%]	pest or weed control at 1000 g/ha [3, 9] [%]	IC50 ([4]; Table I) [nM]	IC50 ([4]; Table II) [nM]	pest or weed control at 1000 g/ha [5, 9] [%]	pest or weed control at 1000 g/ha [6, 9] [%]	pest or weed control at 1000 g/ha [7, 9] [%]	pest or weed control at 1000 g/ha [8, 9] [%]	pest or weed control at 4000 g/ha [1, 10] [%]	pest or weed control at 4000 g/ha [2, 10] [%]	pest or weed control at 4000 g/ha [3, 10] [%]	pest or weed control at 4000 g/ha [5, 10] [%]	pest or weed control at 4000 g/ha [6, 10] [%]	pest or weed control at 4000 g/ha [7, 10] [%]	pest or weed control at 4000 g/ha [8, 10] [%]	also measured
CC1CCN(CC(P(=O)(O)O)P(=O)(O)O)CC1 [Compound 30]	90	5	95	266	266	100	30	5	90	–	–	–	–	–	–	–	–
CC1CCC(C)N1CC(P(=O)(O)O)P(=O)(O)O (stereo not drawn) [Compound 11]	–	–	–	650	610	–	–	–	–	30	0	50	95	30	0	50	–
O=P(O)(O)C(CNC1CC1)P(=O)(O)O [Compound 42]	–	–	–	27	27	–	–	–	–	–	–	–	–	–	–	–	pest or weed control at 1000 g/ha [1]: 100%; pest or weed control at 1000 g/ha [2]: 10%; pest or weed control at 1000 g/ha [3]: 95%; pest or weed control at 1000 g/ha [5]: 100%; pest or weed control at 1000 g/ha [6]: 90%; pest or weed control at 1000 g/ha [7]: 20%; pest or weed control at 1000 g/ha [8]: 95%
C=CCN(CC=C)CC(P(=O)(O)O)P(=O)(O)O [Compound 37]	95	10	100	53	53	98	15	10	95	–	–	–	–	–	–	–	–
O=P(O)(O)C(CNC1CCCCC1)P(=O)(O)O [Compound 5]	–	–	–	425	425	–	–	–	–	98	60	98	100	60	10	98	–
CC1CC(C)CN(CC(P(=O)(O)O)P(=O)(O)O)C1 (stereo not drawn) [Compound 35]	98	0	50	520	520	25	30	0	15	–	–	–	–	–	–	–	–
CCCN(CCC)CC(P(=O)(O)O)P(=O)(O)O [Compound 19]	100	100	98	32	32	100	60	10	100	–	–	–	–	–	–	–	–
C=CCCNCC(P(=O)(O)O)P(=O)(O)O [Compound 16]	80	10	90	316	316	100	10	20	100	–	–	–	–	–	–	–	–
CC1CCCC1NCC(P(=O)(O)O)P(=O)(O)O (stereo not drawn) [Compound 50]	50	5	85	232	232	85	5	5	60	–	–	–	–	–	–	–	–
O=P(O)(O)C(O)(C1CCCN1)P(=O)(O)O (stereo not drawn) [Compound 2]	–	–	–	933	933	–	–	–	–	0	0	60	90	0	5	0	–

Source: patent US5756423A, “Method of controlling plants by inhibition of farnesyl pyrophosphate synthase” (Zeneca Limited, priority 1997, dated 1998)
